Measured values: PubChem BioAssay (NCI)
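Test compounds were applied to cells in 96-well plates for 48 hours at 5 doses. The concentration for full growth arrest is given as TGI.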

Columns and labels:
Test in all cases: NCI anticancer screen, dose series, 48 h
SNB-19 CNS = system: SNB-19 CNS
KM12 colon = system: KM12 colon
OVCAR-8 ovarian = system: OVCAR-8 ovarian
OVCAR-4 ovarian = system: OVCAR-4 ovarian
HCT-15 colon = system: HCT-15 colon
A549 NSCLC = system: A549 NSCLC
M14 melanoma = system: M14 melanoma
786-0 renal = system: 786-0 renal
HCT-116 colon = system: HCT-116 colon
NCI/ADR-RES ovarian = system: NCI/ADR-RES ovarian
OVCAR-3 ovarian = system: OVCAR-3 ovarian
HS 578T breast = system: HS 578T breast
TK-10 renal = system: TK-10 renal
A498 renal = system: A498 renal
KM20L2 colon = system: KM20L2 colon
RPMI-8226 leukemia = system: RPMI-8226 leukemia
NCI-H522 lung = system: NCI-H522 lung
LOX IMVI melanoma = system: LOX IMVI melanoma
HOP-92 NSCLC = system: HOP-92 NSCLC
NCI-H23 lung = system: NCI-H23 lung
SF-268 CNS = system: SF-268 CNS
MOLT-4 leukemia = system: MOLT-4 leukemia
SF-539 CNS = system: SF-539 CNS
HCC-2998 colon = system: HCC-2998 colon
SNB-75 CNS = system: SNB-75 CNS
SNB-78 CNS = system: SNB-78 CNS
DMS 114 small cell lung = system: DMS 114 small cell lung
SN12C renal = system: SN12C renal
EKVX NSCLC = system: EKVX NSCLC
M19-MEL melanoma = system: M19-MEL melanoma
DU-145 prostate = system: DU-145 prostate
ACHN renal = system: ACHN renal
U251 CNS = system: U251 CNS
SF-295 CNS = system: SF-295 CNS
K-562 leukemia = system: K-562 leukemia
SK-MEL-5 melanoma = system: SK-MEL-5 melanoma
T-47D breast = system: T-47D breast
OVCAR-5 ovarian = system: OVCAR-5 ovarian
CCRF-CEM leukemia = system: CCRF-CEM leukemia
SK-OV-3 ovarian = system: SK-OV-3 ovarian
SW-620 colon = system: SW-620 colon
UO-31 renal = system: UO-31 renal
IGROV1 ovarian = system: IGROV1 ovarian
BT-549 breast = system: BT-549 breast
HL-60(TB) leukemia = system: HL-60(TB) leukemia
UACC-257 melanoma = system: UACC-257 melanoma
UACC-62 melanoma = system: UACC-62 melanoma
DMS 273 small cell lung = system: DMS 273 small cell lung
COLO 205 colon = system: COLO 205 colon
DLD-1 colon = system: DLD-1 colon
PC-3 prostate = system: PC-3 prostate
NCI-H226 lung = system: NCI-H226 lung
MCF7 breast = system: MCF7 breast
HOP-62 NSCLC = system: HOP-62 NSCLC
HT29 colon = system: HT29 colon
SK-MEL-2 melanoma = system: SK-MEL-2 melanoma
MDA-MB-231 breast = system: MDA-MB-231 breast
SK-MEL-28 melanoma = system: SK-MEL-28 melanoma
MALME-3M melanoma = system: MALME-3M melanoma
CAKI-1 renal = system: CAKI-1 renal
RXF 393 renal = system: RXF 393 renal
LXFL 529 NSCLC = system: LXFL 529 NSCLC
XF 498 CNS = system: XF 498 CNS
NCI-H460 lung = system: NCI-H460 lung
RXF-631 renal = system: RXF-631 renal
SR leukemia = system: SR leukemia

For `CC[C@@]1(OC(=O)C(N)CCC(=O)O)C(=O)OCc2c1cc1n(c2=O)Cc2cc3ccccc3nc2-1` (stereo partly specified), the TGI (SNB-19 CNS) was over 30.7 µM, the TGI (KM12 colon) was 6.1 µM and the TGI (OVCAR-8 ovarian) was 10.7 µM. For the same compound, the TGI (OVCAR-4 ovarian) was over 20.8 µM, the TGI (HCT-15 colon) was over 100 µM and the TGI (A549 NSCLC) was 3.37 µM. For the same compound, the TGI (M14 melanoma) was 1.2 µM, the TGI (786-0 renal) was 0.159 µM and the TGI (HCT-116 colon) was over 100 µM. For the same compound, the TGI (NCI/ADR-RES ovarian) was 0.297 µM, the TGI (OVCAR-3 ovarian) was 2.07 µM and the TGI (HS 578T breast) was over 100 µM. It also gave a TGI (TK-10 renal) of over 100 µM, a TGI (A498 renal) of 0.965 µM and a TGI (KM20L2 colon) of 5.08 µM. For the same compound, the TGI (RPMI-8226 leukemia) was 2.94 µM, the TGI (NCI-H522 lung) was 2.03 µM and the TGI (LOX IMVI melanoma) was 0.482 µM. It also gave a TGI (HOP-92 NSCLC) of 1.57 µM, a TGI (NCI-H23 lung) of 0.389 µM and a TGI (SF-268 CNS) of 14.7 µM. It also gave a TGI (MOLT-4 leukemia) of 0.0992 µM, a TGI (SF-539 CNS) of 0.0754 µM and a TGI (HCC-2998 colon) of 3.02 µM. It also gave a TGI (SNB-75 CNS) of 1.35 µM, a TGI (SNB-78 CNS) of over 100 µM and a TGI (DMS 114 small cell lung) of 4.42 µM. The TGI (SN12C renal) was 1.34 µM, the TGI (EKVX NSCLC) was over 57.8 µM and the TGI (M19-MEL melanoma) was 1.49 µM. It also gave a TGI (DU-145 prostate) of 0.0504 µM, a TGI (ACHN renal) of 0.561 µM and a TGI (U251 CNS) of 1.98 µM. It also gave a TGI (SF-295 CNS) of 0.446 µM, a TGI (K-562 leukemia) of over 100 µM and a TGI (SK-MEL-5 melanoma) of 0.36 µM. The TGI (T-47D breast) was over 100 µM, the TGI (OVCAR-5 ovarian) was 8.09 µM and the TGI (CCRF-CEM leukemia) was 0.247 µM. For the same compound, the TGI (SK-OV-3 ovarian) was 3.33 µM, the TGI (SW-620 colon) was over 21.1 µM and the TGI (UO-31 renal) was 0.746 µM. The TGI (IGROV1 ovarian) was 4.35 µM, the TGI (BT-549 breast) was over 100 µM and the TGI (HL-60(TB) leukemia) was 0.508 µM. For the same compound, the TGI (UACC-257 melanoma) was 1.63 µM, the TGI (UACC-62 melanoma) was 0.16 µM and the TGI (DMS 273 small cell lung) was 0.29 µM. It also gave a TGI (COLO 205 colon) of 3.03 µM, a TGI (DLD-1 colon) of over 100 µM and a TGI (PC-3 prostate) of over 100 µM. It also gave a TGI (NCI-H226 lung) of 0.192 µM, a TGI (MCF7 breast) of over 100 µM and a TGI (HOP-62 NSCLC) of 0.125 µM. It also gave a TGI (HT29 colon) of over 100 µM, a TGI (SK-MEL-2 melanoma) of 3.44 µM and a TGI (MDA-MB-231 breast) of 5.82 µM. It also gave a TGI (SK-MEL-28 melanoma) of 51.8 µM, a TGI (MALME-3M melanoma) of 2.79 µM and a TGI (CAKI-1 renal) of 0.235 µM. The TGI (RXF 393 renal) was 0.757 µM, the TGI (LXFL 529 NSCLC) was 5.75 µM and the TGI (XF 498 CNS) was 2.04 µM.
`C[N+](C)(C)CC(=O)N/N=C/c1oc(-c2cccc([N+](=O)[O-])c2)c(-c2cccc([N+](=O)[O-])c2)c1[N+](=O)[O-]` was tested, and the TGI (SNB-19 CNS) was over 100 µM, the TGI (OVCAR-8 ovarian) was over 100 µM and the TGI (OVCAR-4 ovarian) was over 100 µM. It also gave a TGI (A549 NSCLC) of over 100 µM, a TGI (M14 melanoma) of over 100 µM and a TGI (786-0 renal) of over 100 µM. The TGI (HCT-116 colon) was over 100 µM, the TGI (TK-10 renal) was over 100 µM and the TGI (A498 renal) was over 100 µM. It also gave a TGI (KM20L2 colon) of over 100 µM, a TGI (RPMI-8226 leukemia) of 55.3 µM and a TGI (NCI-H460 lung) of over 100 µM. The TGI (NCI-H522 lung) was over 100 µM, the TGI (HOP-92 NSCLC) was over 100 µM and the TGI (NCI-H23 lung) was over 100 µM. It also gave a TGI (SF-268 CNS) of over 100 µM, a TGI (SF-539 CNS) of over 100 µM and a TGI (HCC-2998 colon) of over 100 µM. It also gave a TGI (DMS 114 small cell lung) of over 100 µM, a TGI (SN12C renal) of over 100 µM and a TGI (EKVX NSCLC) of over 100 µM. For the same compound, the TGI (M19-MEL melanoma) was over 100 µM, the TGI (ACHN renal) was over 100 µM and the TGI (SK-MEL-5 melanoma) was over 100 µM. The TGI (OVCAR-5 ovarian) was over 100 µM, the TGI (CCRF-CEM leukemia) was over 100 µM and the TGI (SK-OV-3 ovarian) was over 100 µM. It also gave a TGI (SW-620 colon) of over 100 µM, a TGI (RXF-631 renal) of over 100 µM and a TGI (UO-31 renal) of over 100 µM. It also gave a TGI (IGROV1 ovarian) of over 100 µM, a TGI (HL-60(TB) leukemia) of over 100 µM and a TGI (UACC-257 melanoma) of over 100 µM. The TGI (UACC-62 melanoma) was over 100 µM, the TGI (COLO 205 colon) was over 100 µM and the TGI (DLD-1 colon) was over 100 µM. It also gave a TGI (HOP-62 NSCLC) of over 100 µM, a TGI (HT29 colon) of over 100 µM and a TGI (SK-MEL-2 melanoma) of over 100 µM. It also gave a TGI (SK-MEL-28 melanoma) of over 100 µM, a TGI (MALME-3M melanoma) of over 100 µM and a TGI (SR leukemia) of over 100 µM. It also gave a TGI (RXF 393 renal) of over 100 µM.
